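These data come from cells grown in 96-well plates and exposed to compound for 48 hours at five concentrations. At the GI50, growth is halved.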 Calls of active or inactive are those of the source. Cut-off read from the data, not from the text of the source: active = GI50 up to about 1.1 µM and inactive = higher.

We go through eight molecules from ChEMBL document CHEMBL1201862, “PubChem BioAssay data set” (2004).

Assay in all cases: NCI tumour cell line growth inhibition, 48 h
Experiment [1] relates to CAKI-1.
The test system of experiment [2] is KM12.
The test system of experiment [3] is OVCAR-3.
The subject of experiment [4] is SK-MEL-2.
Experiment [5] relates to MDA-MB-435.
The subject of experiment [6] is 786-0.
Experiment [7] deals with UACC-257.
Experiment [8] has as its system SK-MEL-5.
Experiment [9] deals with NCI-H226.
Experiment [10] concerns MCF7.
Experiment [11] has as its system HCT-116.
The subject of experiment [12] is SK-OV-3.
Experiment [13] has as its system SF-295.
Experiment [14] concerns MOLT-4.
Experiment [15] concerns SR.
Experiment [16] deals with ACHN.
Experiment [17] deals with SN12C.
In experiment [18] the test system is CCRF-CEM.
Experiment [19] has as its system M14.
Experiment [20] deals with MDA-MB-231.

Consider `O=C1O/C(=C(\Br)c2ccc([N+](=O)[O-])cc2)c2ccccc21`, for which the GI50 in experiment [1] is > 100 µM (inactive); in experiment [2], > 100 µM (inactive); in [3] it was > 88.5 µM (inactive); in [4], 46.2 µM (inactive); in experiment [5], 62.7 µM (inactive); in [6], > 54.6 µM (inactive). The GI50 in experiment [7] is > 74.8 µM (inactive); in [8], > 75.7 µM (inactive); in experiment [9], > 100 µM (inactive); in experiment [10] it was 48.5 µM (inactive); in experiment [11], 97.9 µM (inactive); in experiment [12], > 100 µM (inactive). Besides, the GI50 in experiment [13] is > 100 µM (inactive); in experiment [14], 27.8 µM (inactive); in experiment [15] it was 28.8 µM (inactive); in experiment [16] it was > 100 µM (inactive); in experiment [17], > 100 µM (inactive); in [18] it was 21.4 µM (inactive). The GI50 in experiment [19] is > 100 µM (inactive).

For the molecule `N#Cc1[nH]c(=O)n(-c2ccc([N+](=O)[O-])cc2)c1N`, the GI50 in experiment [3], in experiment [20], in [4], in experiment [5], in experiment [6] and in experiment [7] was > 10 µM (inactive) each time. Besides, the GI50 in [8], in [9], in experiment [11], in [12], in [13] and in [14] was > 10 µM (inactive) each time. The GI50 in [15], in experiment [16], in [17], in [18] and in experiment [19] was > 10 µM (inactive) throughout.

Turning to `O=c1n(CCCN2CCOCC2)nc2n1-c1ccc3ccccc3c1SC2`, the GI50 in [1] was 49 µM (inactive); in [2] it was 47.3 µM (inactive); in experiment [3] it was 95.7 µM (inactive); in experiment [4] it was 65.8 µM (inactive); in experiment [5] it was 49 µM (inactive); in [6], 16 µM (inactive). For the same molecule, the GI50 in [7] is 29.8 µM (inactive); in experiment [8] it was 29.4 µM (inactive); in experiment [9], > 100 µM (inactive); in experiment [10], 76.7 µM (inactive); in experiment [11], 40.8 µM (inactive); in experiment [12], 63.2 µM (inactive). In addition, the GI50 is 19.9 µM (inactive) in experiment [13]; 39.3 µM (inactive) in [14]; 71.6 µM (inactive) in experiment [15]; 71.9 µM (inactive) in [17]; 45.5 µM (inactive) in [18].

On to `N#CC1([N+](=O)[O-])C=C1c1ccccc1` (stereo not drawn), for which the GI50 in experiment [1] is 82.4 µM (inactive); in experiment [2], > 100 µM (inactive); in experiment [3] it was > 100 µM (inactive); in experiment [4], > 100 µM (inactive); in [6], 28.8 µM (inactive); in [7] it was 78 µM (inactive). The GI50 in [8] was 57.3 µM (inactive); in experiment [9], 95.3 µM (inactive); in experiment [11], 32.4 µM (inactive); in experiment [12], > 100 µM (inactive); in experiment [13], > 100 µM (inactive); in experiment [14], 22.7 µM (inactive). Further, the GI50 in [15] is 25.2 µM (inactive); in [16], 38.6 µM (inactive); in experiment [17], > 100 µM (inactive); in experiment [18] it was 21.1 µM (inactive); in experiment [19] it was 42.6 µM (inactive).

For `O=C(CC(=O)c1ccccc1)C(=O)Nc1ccc(Cl)cc1`, the GI50 in [1] is > 100 µM (inactive); in [2] it was > 100 µM (inactive); in experiment [3] it was > 100 µM (inactive); in experiment [4] it was > 100 µM (inactive); in experiment [6], > 67.6 µM (inactive); in [7], > 61.5 µM (inactive). Moreover, the GI50 is > 100 µM (inactive) in experiment [8]; > 100 µM (inactive) in experiment [9]; > 42.8 µM (inactive) in [11]; > 100 µM (inactive) in [12]; > 100 µM (inactive) in [13]; > 100 µM (inactive) in [14]. Besides, the GI50 in [15], in [16], in experiment [17], in [18] and in experiment [19] was > 100 µM (inactive) throughout.

Turning to `O=C1C(O)=C(CCCc2ccc(Oc3ccccc3)cc2)C(=O)c2ccccc21`, the GI50 in [1] was 21.2 µM (inactive); in [2], 15.1 µM (inactive); in [3], 6.53 µM (inactive); in [4], 10.2 µM (inactive); in experiment [6], 5.64 µM (inactive); in experiment [7] it was 4.32 µM (inactive). Besides, the GI50 is 3.38 µM (inactive) in experiment [8]; 10.8 µM (inactive) in experiment [9]; 3.7 µM (inactive) in experiment [11]; 51.4 µM (inactive) in experiment [12]; 7.78 µM (inactive) in experiment [13]; 4.19 µM (inactive) in experiment [14]. Also, the GI50 in [15] is 15.2 µM (inactive); in experiment [16], 5.93 µM (inactive); in [17], 10.9 µM (inactive); in [18] it was 18.1 µM (inactive); in experiment [19], 10.5 µM (inactive).

Turning to `COc1cc(C2c3cc4c(cc3[C@@H](Nc3ccc([N+](=O)[O-])cc3)C3COC(=O)[C@H]23)OCO4)cc(OC)c1O` (stereo partly drawn), the GI50 in experiment [1] is 0.438 µM (active); in experiment [2], 2.56 µM (inactive); in experiment [3], 4.57 µM (inactive); in [4], 4.26 µM (inactive); in experiment [5], 6.11 µM (inactive); in [6], 0.652 µM (active). For the same molecule, the GI50 is 4.65 µM (inactive) in experiment [7]; 0.586 µM (active) in experiment [8]; 0.67 µM (active) in experiment [9]; 0.615 µM (active) in experiment [10]; 2.27 µM (inactive) in [11]; 1.54 µM (inactive) in experiment [12]. Further, the GI50 in experiment [13] is 0.466 µM (active); in [14], 0.0171 µM (active); in [15], 0.0552 µM (active); in experiment [16] it was 0.25 µM (active); in experiment [17] it was 0.853 µM (active); in experiment [18], 0.198 µM (active). Further, in [19], the GI50 is 1.33 µM (inactive).

In the case of `CC(=O)Nc1ccc(S(=O)(=O)/N=c2/sc(S(N)(=O)=O)nn2C)cc1`, the GI50 in [1], in [2], in experiment [3], in [20], in experiment [4] and in experiment [5] was > 100 µM (inactive) in each case. For the same molecule, the GI50 in experiment [6], in [9], in experiment [11], in experiment [12], in experiment [13] and in experiment [14] was > 100 µM (inactive) each time. The GI50 in experiment [15], in experiment [16] and in experiment [19] was > 100 µM (inactive) in each case.
